Measured values from patent publication US20210403435A1, “HERBICIDAL COMPOUNDS” (SYNGENTA CROP PROTECTION AG, priority 2018, published 2021).

Key:
Experiment in all cases: Post-emergence efficacy, glasshouse, evaluated after 13 days
Assay type in all cases: in vivo
[1] = test system: Echinochloa crus-galli (ECHCG); settings: Echinochloa crus-galli, 312 h; post-emergence application, 500 g/Ha, evaluated after 13 days; read-out: Control of weed species ECHCG (100=total damage to plant; 0=no damage to plant)
How it was run: (§1)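 Plants grown 14 days in glasshouse (24/16° C., 14 h light, 65% humidity), then sprayed post-emergence with compound formulated in IF50 and diluted in 0.25% or 1% Empicol ESC70 + 1% ammonium sulphate. Damage scored after 13 days (0 none to 100 total).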

Eleusine indica (ELEIN) = settings: Eleusine indica, 312 h; post-emergence application, 500 g/Ha, evaluated after 13 days; read-out: Control of weed species ELEIN (100=total damage to plant; 0=no damage to plant)
How it was run: as §1

[2] = test system: Digitaria sanguinalis (DIGSA); settings: Digitaria sanguinalis, 312 h; post-emergence application, 500 g/Ha, evaluated after 13 days; read-out: Control of weed species DIGSA (100=total damage to plant; 0=no damage to plant)
How it was run: as §1

[3] = test system: Chenopodium album (CHEAL); settings: Chenopodium album, 312 h; post-emergence application, 500 g/Ha, evaluated after 13 days; read-out: Control of weed species CHEAL (100=total damage to plant; 0=no damage to plant)
How it was run: as §1

Lolium perenne (LOLPE) = settings: Lolium perenne, 312 h; post-emergence application, 500 g/Ha, evaluated after 13 days; read-out: Control of weed species LOLPE (100=total damage to plant; 0=no damage to plant)
How it was run: as §1

[4] = test system: Ipomoea hederacea (IPOHE); settings: Ipomoea hederacea, 312 h; post-emergence application, 500 g/Ha, evaluated after 13 days; read-out: Control of weed species IPOHE (100=total damage to plant; 0=no damage to plant)
How it was run: as §1

[5] = test system: Euphorbia heterophylla (EPHHL); settings: Euphorbia heterophylla, 312 h; post-emergence application, 500 g/Ha, evaluated after 13 days; read-out: Control of weed species EPHHL (100=total damage to plant; 0=no damage to plant)
How it was run: as §1

[6] = test system: Amaranthus palmeri (AMAPA); settings: Amaranthus palmeri, 312 h; post-emergence application, 500 g/Ha, evaluated after 13 days; read-out: Control of weed species AMAPA (100=total damage to plant; 0=no damage to plant)
How it was run: as §1

Setaria faberi (SETFA) = settings: Setaria faberi, 312 h; post-emergence application, 500 g/Ha, evaluated after 13 days; read-out: Control of weed species SETFA (100=total damage to plant; 0=no damage to plant)
How it was run: as §1

**Q.** O=C(O)CC[n+]1ccc(C(=O)NCCc2ncccn2)cn1 [Compound A145] was tested. Which pest or weed control at 500 g/ha [1] did it give?
**A.** 60%

**Q.** What about the pest or weed control at 500 g/ha (Eleusine indica (ELEIN)) of the same compound?
**A.** 100%

**Q.** And the pest or weed control at 500 g/ha [2]?
**A.** 100%

**Q.** What about the pest or weed control at 500 g/ha [3] of the same compound?
**A.** 100%

**Q.** And the pest or weed control at 500 g/ha (Lolium perenne (LOLPE))?
**A.** 70%

**Q.** And the pest or weed control at 500 g/ha [4]?
**A.** 30%

**Q.** And the pest or weed control at 500 g/ha [5]?
**A.** 0%

**Q.** And the pest or weed control at 500 g/ha [6]?
**A.** 100%

**Q.** What about the pest or weed control at 500 g/ha (Setaria faberi (SETFA)) of the same compound?
**A.** 80%

**Q.** Which results are given for O=C(O)CC[n+]1ccc(C(=O)NCc2nccs2)cn1 [Compound A146]?
**A.** pest or weed control at 500 g/ha [1]: 100%; pest or weed control at 500 g/ha (Eleusine indica (ELEIN)): 80%; pest or weed control at 500 g/ha [2]: 100%; pest or weed control at 500 g/ha [3]: 80%; pest or weed control at 500 g/ha (Lolium perenne (LOLPE)): 100%; pest or weed control at 500 g/ha [4]: 20%; pest or weed control at 500 g/ha [5]: 20%; pest or weed control at 500 g/ha [6]: 80%; pest or weed control at 500 g/ha (Setaria faberi (SETFA)): 90%

**Q.** Which pest or weed control at 500 g/ha [1] does the source give for Cn1cnc(CNC(=O)c2cc[n+](CCC(=O)O)nc2)n1 [Compound A147] here?
**A.** 90%

**Q.** What about the pest or weed control at 500 g/ha (Eleusine indica (ELEIN)) of the same compound?
**A.** 90%

**Q.** And the pest or weed control at 500 g/ha [2]?
**A.** 100%

**Q.** And the pest or weed control at 500 g/ha [3]?
**A.** 90%

**Q.** What about the pest or weed control at 500 g/ha (Lolium perenne (LOLPE)) of the same compound?
**A.** 90%

**Q.** And the pest or weed control at 500 g/ha [4]?
**A.** 40%

**Q.** What about the pest or weed control at 500 g/ha [5] of the same compound?
**A.** 80%

**Q.** What about the pest or weed control at 500 g/ha [6] of the same compound?
**A.** 100%

**Q.** What about the pest or weed control at 500 g/ha (Setaria faberi (SETFA)) of the same compound?
**A.** 80%

**Q.** With CC1(C)CC(CCNC(=O)c2cc[n+](CCC(=O)O)nc2)=NO1 [Compound A148, 3-[4-[2-(5,5-dimethyl-4H-isoxazol-3-yl)ethylcarbamoyl]pyridazin-1-ium-1-yl]propanoic acid 2,2,2-trifluoroacetate] as the compound, how does the pest or weed control at 500 g/ha [1] read?
**A.** 30%

**Q.** And the pest or weed control at 500 g/ha (Eleusine indica (ELEIN))?
**A.** 30%

**Q.** What about the pest or weed control at 500 g/ha [2] of the same compound?
**A.** 80%

**Q.** And the pest or weed control at 500 g/ha [3]?
**A.** 90%

**Q.** And the pest or weed control at 500 g/ha (Lolium perenne (LOLPE))?
**A.** 30%

**Q.** What about the pest or weed control at 500 g/ha [4] of the same compound?
**A.** 30%

**Q.** And the pest or weed control at 500 g/ha [5]?
**A.** 40%

**Q.** And the pest or weed control at 500 g/ha [6]?
**A.** 70%

**Q.** And the pest or weed control at 500 g/ha (Setaria faberi (SETFA))?
**A.** 50%
